We go through 21 compounds from US10035804B2, “Spirodiamine derivatives as aldosterone synthase inhibitors” (Hoffmann-La Roche Inc., priority 2014, dated 2018).

One assay has as its target human CYP11B2 (Homo sapiens (Human), UniProt P19099). Put plainly: G-402 cellular enzyme assay, human CYP11B2 (aldosterone release). The class given is cell-based. The conditions noted are these: G-402 cells expressing human CYP11B2; 1 μM Deoxycorticosterone; aldosterone in supernatant after 16 h. The source says: (§1) Herein we identified the use of the G-402 cell line as a host cell to ectopically express (transiently or stably) enzymes of the CYP11 family. Specifically we developed stable G-402 cells expressing ectopically human CYP11B1, human CYP11B2, human CYP11A1, cynmolgus CYP11B1 or cynomolgus CYP11B2 enzyme activity. Importantly the identified cell line G-402 expresses co-factors (adrenodoxin and adrenodoxin reductase) important for the activity of the CYP11 family and no relevant enzyme activity of the CYP11 family (in comparison to H295R cells) was detected in these cells. Therefore the G-402 cell line is uniquely suited as a host cell for the ectopic expression of enzymes from the CYP11 family.
(§2) G-402 cells can be obtained from ATCC (CRL-1440) and were originally derived from a renal leiomyoblastoma.
(§3) The expression plasmids contains the ORF for either human/cyno CYP11B1 or CYP11B2 under the control of a suitable promoter (CMV-promoter) and a suitable resistance marker (neomycin). Using standard techniques the expression plasmid is transfected into G-402 cells and these cells are then selected for expressing the given resistance markers. Individual cell-clones are then selected and assessed for displaying the desired enzymatic activity using 11-Deoxycorticosterone (Cyp11B2) or 11-Deoxycortisol (Cyp11B1) as a substrate.
(§4) G-402 cells expressing CYP11 constructs were established as described above and maintained in McCoy's 5a Medium Modified, ATCC Catalog No. 30-2007 containing 10% FCS and 400 μg/ml G418 (Geneticin) at 37° C. under an atmosphere of 5% CO2/95% air. Cellular enzyme assays were performed in DMEM/F12 medium containing 2.5% charcoal treated FCS and appropriate concentration of substrate (0.3-10 uM 11-Deoxycorticosterone, 11-Deoxycortisol or Corticosterone). For assaying enzymatic activity, cells were plated onto 96 well plates and incubated for 16 h. An aliquot of the supernatant is then transferred and analyzed for the concentration of the expected product (Aldosterone for CYP11B2; Cortisol for CYP11B1). The concentrations of these steroids can be determined using HTRF assays from CisBio analyzing either Aldosterone or Cortisol.
(§5) Inhibition of the release of produced steroids can be used as a measure of the respective enzyme inhibition by test compounds added during the cellular enzyme assay. The dose dependent inhibition of enzymatic activity by a compound is calculated by means of plotting added inhibitor concentrations (x-axes) vs. measured steroid/product level (y-axes). The inhibition is then calculated by fitting the following 4-parameter sigmoidal function (Morgan-Mercer-Flodin (MMF) model) to the raw data points using the least squares method:
(§6) [formula] wherein, A is the maximum y value, B is the EC50 factor determined using XLFit, C is the minimum y value and D is the slope value.
(§7) EC50 values for compounds claimed herein were tested with the G402-based assay system described. Cyp11B2 enzyme activity was tested in presence of 1 μM Deoxycorticosterone and variable amounts of inhibitors; Cyp11B1 enzyme activity was tested in presence of 1 μM Deoxycortisol and variable amounts of inhibitors.

In the next assay the target is human CYP11B1 (Homo sapiens (Human), UniProt P15538). Put plainly: G-402 cellular enzyme assay, human CYP11B1 (cortisol release). The class given is cell-based. The conditions noted are these: G-402 cells expressing human CYP11B1; 1 μM Deoxycortisol; cortisol in supernatant after 16 h.
Description: as §1, §2, §3, §4, §5, §6, §7

Sequence of human CYP11B2 (P19099 25-503): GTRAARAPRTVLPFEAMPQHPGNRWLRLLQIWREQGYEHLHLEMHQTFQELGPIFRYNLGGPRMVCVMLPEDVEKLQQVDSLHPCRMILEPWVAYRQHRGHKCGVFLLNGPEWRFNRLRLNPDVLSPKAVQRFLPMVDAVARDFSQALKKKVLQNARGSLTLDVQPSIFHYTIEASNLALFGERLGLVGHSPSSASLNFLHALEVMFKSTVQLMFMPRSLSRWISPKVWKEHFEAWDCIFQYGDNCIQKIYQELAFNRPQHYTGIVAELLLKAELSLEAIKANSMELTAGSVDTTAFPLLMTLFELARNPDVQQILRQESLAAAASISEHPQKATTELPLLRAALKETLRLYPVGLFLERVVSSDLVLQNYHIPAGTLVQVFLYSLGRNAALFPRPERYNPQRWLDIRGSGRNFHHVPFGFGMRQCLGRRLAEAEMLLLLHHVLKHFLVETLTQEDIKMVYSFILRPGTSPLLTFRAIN
Sequence of human CYP11B1 (P15538 25-503): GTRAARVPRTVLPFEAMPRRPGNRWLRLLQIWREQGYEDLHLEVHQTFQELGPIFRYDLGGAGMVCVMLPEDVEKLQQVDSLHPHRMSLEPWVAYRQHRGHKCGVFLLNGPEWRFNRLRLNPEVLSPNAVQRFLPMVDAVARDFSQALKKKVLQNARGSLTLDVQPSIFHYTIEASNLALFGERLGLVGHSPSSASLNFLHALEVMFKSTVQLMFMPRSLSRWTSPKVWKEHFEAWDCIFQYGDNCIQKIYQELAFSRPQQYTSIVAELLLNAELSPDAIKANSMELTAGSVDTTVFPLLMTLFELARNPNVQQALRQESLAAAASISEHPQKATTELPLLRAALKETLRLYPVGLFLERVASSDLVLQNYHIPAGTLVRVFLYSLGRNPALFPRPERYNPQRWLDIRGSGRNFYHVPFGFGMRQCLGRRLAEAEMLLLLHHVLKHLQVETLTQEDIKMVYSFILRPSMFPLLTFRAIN

Take `CCn1cc(C(=O)N2CC3(C2)CN(c2cncc(N4C(=O)c5ccc(Cl)cc5C4(C)C)c2)C3)cn1` [Example 2, 5-Chloro-2-[5-[2-(1-ethylpyrazole-4-carbonyl)-2,6-diazaspiro[3.3]heptan-6-yl]-3-pyridyl]-3,3-dimethyl-isoindolin-1-one]: the EC50 at human CYP11B2 was 0.003 nM; at human CYP11B1 it was 11.1 nM.

With `Cn1cncc1C(=O)N1CC2(C1)CN(c1cncc(N3C(=O)c4ccc(C#N)cc4C3(C)C)c1)C2` [Example 13, 3,3-Dimethyl-2-[5-[2-(3-methylimidazole-4-carbonyl)-2,6-diazaspiro[3.3]heptan-6-yl]-3-pyridyl]-1-oxo-isoindoline-5-carbonitrile], the EC50 was 0.0278 nM on human CYP11B2 and 26.4 nM at human CYP11B1.

Regarding `COc1nccnc1C(=O)N1CC2(C1)CN(c1cncc(N3C(=O)c4ccc(Cl)cc4C3(C)C)c1)C2` [Example 37, 5-Chloro-2-[5-[2-(3-methoxypyrazine-2-carbonyl)-2,6-diazaspiro[3.3]heptan-6-yl]-3-pyridyl]-3,3-dimethyl-isoindolin-1-one], the EC50 on human CYP11B2 came out at 0.0754 nM; on human CYP11B1, 16.1 nM.

Consider `CC1c2cc(Cl)ccc2C(=O)N1c1cncc(N2CC3(CN(C(=O)c4cnn(C)c4)C3)C2)c1` (stereo not drawn) [Example 18, 5-Chloro-3-methyl-2-[5-[2-(1-methylpyrazole-4-carbonyl)-2,6-diazaspiro[3.3]heptan-6-yl]-3-pyridyl]isoindolin-1-one], for which the concentration giving a half-maximal response (EC50) was found to be 0.0078 nM at human CYP11B2 and 16.7 nM on human CYP11B1.

As to `CC1(C)c2cc(Cl)ccc2C(=O)N1c1cncc(N2CC3(CN(C(=O)c4cncnc4)C3)C2)c1` [Example 40, 5-Chloro-3,3-dimethyl-2-[5-[2-(pyrimidine-5-carbonyl)-2,6-diazaspiro[3.3]heptan-6-yl]-3-pyridyl]isoindolin-1-one], the EC50 on human CYP11B2 stood at 0.0542 nM; on human CYP11B1 it was 12 nM.

Consider `Cc1cnc(C(=O)N2CC3(C2)CN(c2cncc(N4C(=O)c5ccc(Cl)cc5C4(C)C)c2)C3)cn1` [Example 30, 5-Chloro-3,3-dimethyl-2-[5-[2-(5-methylpyrazine-2-carbonyl)-2,6-diazaspiro[3.3]heptan-6-yl]-3-pyridyl]isoindolin-1-one], for which the EC50 is 0.0456 nM on human CYP11B2 and 3.75 nM on human CYP11B1.

On to `COc1ccc2c(n1)C(C)(C)N(c1cncc(N3CC4(CN(C(=O)c5cnccc5C)C4)C3)c1)C2=O` [Example 16, 2-Methoxy-7,7-dimethyl-6-[5-[2-(4-methylpyridine-3-carbonyl)-2,6-diazaspiro[3.3]heptan-6-yl]-3-pyridyl]pyrrolo[3,4-b]pyridin-5-one], for which the values for the EC50 at human CYP11B2 and on human CYP11B1 were 0.0827 nM and 29.3 nM, respectively.

For the compound `Cn1cc(C(=O)N2CC3(C2)CN(c2cncc(N4C(=O)c5ccc(Cl)cc5C45CC5)c2)C3)cn1` [Example 19, 5′-Chloro-2′-[5-[2-(1-methylpyrazole-4-carbonyl)-2,6-diazaspiro[3.3]heptan-6-yl]-3-pyridyl]spiro[cyclopropane-1,3′-isoindoline]-1′-one], the EC50 on human CYP11B2 is 0.0029 nM; at human CYP11B1 it was 7.69 nM.

`Cn1cncc1C(=O)N1CC2(C1)CN(c1cncc(N3C(=O)c4ccc(Cl)cc4C3(C)C)c1)C2` [Example 6, 5-Chloro-3,3-dimethyl-2-[5-[2-(3-methylimidazole-4-carbonyl)-2,6-diazaspiro[3.3]heptan-6-yl]-3-pyridyl]isoindolin-1-one]: the EC50 on human CYP11B2 amounted to 0.0117 nM; at human CYP11B1, 7.94 nM.

`Cc1ncnc(C)c1C(=O)N1CC2(C1)CN(c1cncc(N3C(=O)c4ccc(Cl)cc4C3(C)C)c1)C2` [Example 48, 5-Chloro-2-[5-[2-(4,6-dimethylpyrimidine-5-carbonyl)-2,6-diazaspiro[3.3]heptan-6-yl]-3-pyridyl]-3,3-dimethyl-isoindolin-1-one]: the EC50 on human CYP11B2 was 0.239 nM; at human CYP11B1, > 30 nM.

On to `COc1ccc2c(n1)C(C)(C)N(c1cncc(N3CC4(CN(C(=O)c5cnn(C)c5)C4)C3)c1)C2=O` [Example 15, 2-Methoxy-7,7-dimethyl-6-[5-[2-(1-methylpyrazole-4-carbonyl)-2,6-diazaspiro[3.3]heptan-6-yl]-3-pyridyl]pyrrolo[3,4-b]pyridin-5-one], for which the results for the EC50 at human CYP11B2 and at human CYP11B1 were 0.0205 nM and 18.9 nM, respectively.

Turning to `Cn1nccc1C(=O)N1CC2(C1)CN(c1cncc(N3C(=O)c4ccc(Cl)cc4C3(C)C)c1)C2` [Example 5, 5-Chloro-3,3-dimethyl-2-[5-[2-(2-methylpyrazole-3-carbonyl)-2,6-diazaspiro[3.3]heptan-6-yl]-3-pyridyl]isoindolin-1-one], the EC50 came to 0.145 nM on human CYP11B2 and 15.7 nM on human CYP11B1.

As to `Cn1nccc1C(=O)N1CC2(C1)CN(c1cncc(N3C(=O)c4ccc(Cl)cc4C34CC4)c1)C2` [Example 21, 5′-Chloro-2′-[5-[2-(2-methylpyrazole-3-carbonyl)-2,6-diazaspiro[3.3]heptan-6-yl]-3-pyridyl]spiro[cyclopropane-1,3′-isoindoline]-1′-one], the EC50 on human CYP11B2 was 0.293 nM; at human CYP11B1, > 30 nM.

Regarding `CC(C)n1cc(C(=O)N2CC3(C2)CN(c2cncc(N4C(=O)c5ccc(C#N)cc5C4(C)C)c2)C3)cn1` [Example 10, 2-[5-[2-(1-Isopropylpyrazole-4-carbonyl)-2,6-diazaspiro[3.3]heptan-6-yl]-3-pyridyl]-3,3-dimethyl-1-oxo-isoindoline-5-carbonitrile], the EC50 at human CYP11B2 is 0.0155 nM; at human CYP11B1 it was 25.6 nM.

On to `Cc1ncc(C(=O)N2CC3(C2)CN(c2cncc(N4C(=O)c5ccc(Cl)cc5C4(C)C)c2)C3)o1` [Example 43, 5-Chloro-3,3-dimethyl-2-[5-[2-(2-methyloxazole-5-carbonyl)-2,6-diazaspiro[3.3]heptan-6-yl]-3-pyridyl]isoindolin-1-one], for which the EC50 amounted to 0.018 nM on human CYP11B2 and 18 nM at human CYP11B1.

Take `Cc1ncc(Cl)c(C(=O)N2CC3(C2)CN(c2cncc(N4C(=O)c5ccc(Cl)cc5C4(C)C)c2)C3)n1` [Example 47, 5-Chloro-2-[5-[2-(5-chloro-2-methyl-pyrimidine-4-carbonyl)-2,6-diazaspiro[3.3]heptan-6-yl]-3-pyridyl]-3,3-dimethyl-isoindolin-1-one]: the EC50 on human CYP11B2 is 0.504 nM; at human CYP11B1, 8.31 nM.

As for `CC1(C)c2cc(Cl)ccc2C(=O)N1c1cncc(N2CC3(CN(C(=O)c4ncccc4C#N)C3)C2)c1` [Example 46, 2-[6-[5-(6-Chloro-1,1-dimethyl-3-oxo-isoindolin-2-yl)-3-pyridyl]-2,6-diazaspiro[3.3]heptane-2-carbonyl]pyridine-3-carbonitrile], the figures for the EC50 at human CYP11B2 and on human CYP11B1 were 0.0383 nM and 3.86 nM, respectively.

Turning to `Cc1nocc1C(=O)N1CC2(C1)CN(c1cncc(N3C(=O)c4ccc(Cl)cc4C3(C)C)c1)C2` [Example 27, 5-Chloro-3,3-dimethyl-2-[5-[2-(3-methylisoxazole-4-carbonyl)-2,6-diazaspiro[3.3]heptan-6-yl]-3-pyridyl]isoindolin-1-one], the values for the concentration giving a half-maximal response (EC50) on human CYP11B2 and on human CYP11B1 were 0.104 nM and 14 nM, respectively.

`Cn1nccc1C(=O)N1CC2(C1)CN(c1cncc(N3C(=O)c4ccc(C#N)cc4C3(C)C)c1)C2` [Example 12, 3,3-Dimethyl-2-[5-[2-(2-methylpyrazole-3-carbonyl)-2,6-diazaspiro[3.3]heptan-6-yl]-3-pyridyl]-1-oxo-isoindoline-5-carbonitrile]: the EC50 at human CYP11B2 was 0.191 nM; on human CYP11B1, > 30 nM.

As to `Cc1cc(C(=O)N2CC3(C2)CN(c2cncc(N4C(=O)c5ccc(Cl)cc5C4(C)C)c2)C3)n(C)n1` [Example 31, 5-Chloro-2-[5-[2-(2,5-dimethylpyrazole-3-carbonyl)-2,6-diazaspiro[3.3]heptan-6-yl]-3-pyridyl]-3,3-dimethyl-isoindolin-1-one], the EC50 on human CYP11B2 worked out at 0.154 nM; on human CYP11B1 it was 6.43 nM.

For the compound `Cc1ccncc1C(=O)N1CCC2(CC1)CN(c1cncc(N3C(=O)c4ccc(Cl)cc4C3(C)C)c1)C2` [Example 57, 5-Chloro-3,3-dimethyl-2-[5-[7-(4-methylpyridine-3-carbonyl)-2,7-diazaspiro[3.5]nonan-2-yl]-3-pyridyl]isoindolin-1-one], the EC50 at human CYP11B2 was determined as 0.049 nM; at human CYP11B1 it was 9.72 nM.

As a reminder, the EC50 is the concentration at which the effect is half-maximal.
